Biological target: T1, C3aR (Rattus norvegicus, UniProt O55197)
T1 construct: characterize for the first time a C3aR-induced innate immune response in vivo in rats; from tissue; host or cells: live male Wistar rats, hind paw
T1 sequence (O55197 1-473): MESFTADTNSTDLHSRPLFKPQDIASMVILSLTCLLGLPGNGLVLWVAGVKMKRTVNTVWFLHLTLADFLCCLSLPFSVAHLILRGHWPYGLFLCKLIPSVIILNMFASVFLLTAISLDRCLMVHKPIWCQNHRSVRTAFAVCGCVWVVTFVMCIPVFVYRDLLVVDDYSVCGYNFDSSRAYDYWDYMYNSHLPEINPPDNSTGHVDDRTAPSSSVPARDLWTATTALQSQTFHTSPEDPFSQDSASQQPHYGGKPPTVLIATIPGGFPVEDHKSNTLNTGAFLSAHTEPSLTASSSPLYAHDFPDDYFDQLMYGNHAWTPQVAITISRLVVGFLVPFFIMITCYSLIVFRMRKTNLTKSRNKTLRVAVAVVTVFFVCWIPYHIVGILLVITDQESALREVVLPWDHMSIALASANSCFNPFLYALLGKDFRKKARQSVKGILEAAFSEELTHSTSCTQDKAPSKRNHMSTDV
Test: Antagonism of BR103-induced rat paw edema by oral C3aR antagonist
Assay type: in vivo
Method: Male Wistar rats (8–9 weeks) were injected with BR103 (3, 350 μg in 100 μL isotonic saline) into the plantar surface of both hind paw pads using a 30G needle. The inhibitor cromolyn (20 mg/kg in 5% DMSO) was injected subcutaneously 30 min before the agonist. The antagonist BR111 (6, 5–20 mg/kg in olive oil) was administered orally as a single dose 2 h before the agonist. Paw thickness and width were measured using digital calipers (WPI) at 0, 0.5, 2, 6 and 24 h after agonist BR103 administration. Hind paw size is expressed as % change in area from baseline after 0.5 h and then normalized against maximum swelling induced by agonist alone. Researchers were not blinded to treatments given.
Rat paw tissue was collected and fixed in 4% paraformaldehyde (pH 7.4) for 2 h in the cold room (4 °C). The rat paw tissue was then transferred into falcon tubes containing 30% sucrose solution in PBS and left overnight in the cold room. The next day, rat paw tissue was embedded with the Optimal Cutting Temperature compound (OCT, Sakura Finetek, USA) and stored in the −80 °C freezer before being used for making cryo-sections for histological analysis. Frozen sections of 5 microns were prepared using a cryostat-microtome (Leica Biosystems, Germany) and stained using standard protocols on the same day. In normal histological staining, such as with alcian blue and safranin O and hematoxylin and eosin (H&E), samples were briefly washed with distilled water before staining. In alcian blue and safranin O, samples were stained with 0.1% alcian blue (Sigma-Aldrich, USA) and 0.5% safranin O (Sigma-Aldrich, USA) before being mounted in mounting medium. In H&E, samples were stained with hematoxylin (Sigma-Aldrich, USA) and 0.1% eosin (Sigma-Aldrich, USA) before being mounted in mounting medium. In immunohistochemistry, samples were briefly rinsed with PBS to remove OCT and incubated with blocking medium (PBS, 0.1% triton X-100, 10% horse serum) for 1 h at room temperature. Samples were incubated with primary antibody medium (PBS, 4% horse serum, 1:200 histamine or 1:200 of tryptase or 1:150 ED1 or 1:200 ED2 antibodies) overnight at 4 °C. The next day, samples were washed with PBS and were incubated with the secondary antibody medium (PBS, 4% horse serum, detection antibody 1:1000) for 1 h at room temperature. The samples were briefly rinsed, dried and counterstained with DAPI (Invitrogen, Australia). Primary antibodies for histamine (Sigma-Aldrich, USA, H2403, monoclonal rabbit anti-rat IgG, 1: 200), tryptase (Abcam, Australia, ab2378, monoclonal mouse anti-rat IgG, 1:200), ED1 (Serotec, UK, MCA341R, monoclonal mouse anti-rat, 1:150), ED2 (Serotec, UK, MCA3424R, monoclonal mouse anti-rat, 1:200) were purchased from commercial sources. Secondary detection antibody was purchased from (Invitrogen, Australia). ED1 & ED2 positive cells were quantified using FIJI/ImageJ 1.42q software, U.S. National Institutes of Health, Bethesda, MD, USA[44]. All microscope images were obtained using an Olympus BX-51 upright microscope with Olympus DP-71 12Mp colour camera, utilizing DP Capture and DP Manager software packages (Olympus, Tokyo, Japan). Researchers who performed histological analysis and scoring were blinded to the sample identity.
Rat paw tissues were collected and immediately frozen with liquid nitrogen. The frozen rat paw tissue samples were weighed and crushed into smaller pieces with a mortar and pestle in liquid nitrogen. […]

Effect on BR103-induced mast cell activation and degranulation and histamine secretion (20 mg/kg p.o., 2 h prior, 0.5 h after agonist): attenuated
Effect on BR103-induced neutrophil activation (MPO activity) (20 mg/kg p.o., 2 h prior, 6 h after BR103): attenuated neutrophil activation at 6 h
Effect on BR103-induced paw edema (oral pretreatment 2 h before BR103 350 µg/paw i.pl., 5–20 mg/kg p.o., swelling at 30 min): strongly inhibited acute rat paw edema
SMILES: N=C(N)NCCCC(NC(=O)c1ccc(C(c2ccccc2)c2ccccc2)s1)C(=O)O (centres unmarked) [Compound 6]
Effect on BR103-induced infiltration of ED1 macrophages (20 mg/kg p.o., 2 h prior, 0.5 h): prevented the increased infiltration of inflammatory ED1 macrophages
Effect on BR103-induced proinflammatory cytokine and chemokine gene expression (20 mg/kg p.o., 2 h prior, 30 min): suppression of BR103-induced gene expression of proinflammatory cytokines and chemokines

Reference: article PMC5570900, “Exploiting a novel conformational switch to control innate immunity mediated by complement protein C3a” (Nature Communications, 2017)
